Consider ten compounds from patent US6326034A, “Natural extracted and synthetic antioxidant compositions” (priority 1999, dated 2001).

Assay [1] in a line: β-carotene test (coupled oxidation of β-carotene and linoleic acid), in vitro. Conditions: β Carotene test; for antioxidant activity (in words): chromium compounds and their reactants; for EC50 for antioxidant activity of chromium compounds: Table 6. How it is done: Evaluation of antioxidant activity is based on coupled oxidation of β-carotene and linoleic acid. The technique consists of measuring the consumption of β-carotene as a result of its oxidation process in the reaction mixture. The β-carotene-linoleic acid method has been reported as an efficient technique to detect and evaluate antioxidants from plants and from other sources by several investigation groups. Ten milligram of β-carotene were dissolved in 10 ml chloroform and 0.6 ml of the solution was added to a round flask that contained 20 mg of linoleic acid and 200 mg of Tween 20. Chloroform was removed by evaporation, and 50 ml of distilled water were slowly added to the flask with vigorous agitation to form an emulsion. Two milliliters of the emulsion were added to 1 ml of the examined antioxidant solution. The tubes were placed in a water bath at 50° C. and absorbance measurements were made at 30 minutes intervals [M. S. Taga et al., J. Am. Oil Chem. Soc. 61: 928-931, 1984]. […]

Assay [2] in a line: FRAP assay (ferric reducing/antioxidant power), in vitro.

With `O=S(=O)([O-])[O-].O=S(=O)([O-])[O-].O=S(=O)([O-])[O-].[Cr+3].[Cr+3]` [Cr2(SO4)3, chromium sulfate, reference compound], the “antioxidant activity (in words)” value in assay [1] is recorded as “relatively much lower antioxidant effect”.
Consider `CC(=O)[O-].CC(=O)[O-].CC(=O)[O-].[Cr+3]` [Cr Acetate, chromium acetate, reference compound], for which, in assay [1], the “antioxidant activity (in words)” value is “lacks any antioxidant activity”.
On to `[Cl][Cr]([Cl])[Cl]` [CrCl3, chromium chloride, reference compound], for which, in assay [1], the “antioxidant activity (in words)” value is reported as “relatively much lower antioxidant effect” and the “EC50 for antioxidant activity of chromium compounds” value (“EC50 for antioxidant activity” for short) is 7.2 × 10^-4 mg Cr/ml. In addition, in assay [2] (chromium compounds, FRAP, all concentrations used), the “antioxidant activity (in words)” value is “inactive”.
`N[C@@H](CS)C(=O)O` [Cysteine, cysteine, reference compound]: the “antioxidant activity (in words)” value in assay [1] was “no antioxidant activity”.
Still for that read-out and setting: the entry for `N[C@@H](CCC(=O)N[C@@H](CS)C(=O)NCC(=O)O)C(=O)O` [Glutathione, glutathione, reference compound] is “lower activity”.
The same measure, in the same setting: the result for `CC(=O)N[C@@H](CS)C(=O)O` [NAC, N-acetyl cysteine, reference compound] reads “lower activity”.
As for Chromium Cysteine [Cr-Cys], in assay [1], the “antioxidant activity (in words)” value was “the most active complex” and the “EC50 for antioxidant activity” value is recorded as 7.8 × 10^-8 mg Cr/ml. In addition, the “antioxidant activity (in words)” value in assay [1] (listed as Cr-cysteine) is recorded as “dose dependent antioxidant activity”. Also, in assay [2] (at equal concentrations of cysteine, FIG. 27), the “fold more active than cysteine” value is 2.5 fold.
Chromium N-Acetyl Cysteine [Cr-NAC]: in assay [1], the “antioxidant activity (in words)” value is reported as “dose dependent antioxidant activity” and the “EC50 for antioxidant activity” value was 2.7 × 10^-7 mg Cr/ml.
With Chromium-Cystine, the “antioxidant activity (in words)” value in assay [1] was “did not show any antioxidant activity”.
For Chromium-Glutathione [Cr-GSH], in assay [1], the “antioxidant activity (in words)” value is listed as “dose dependent antioxidant activity” and the “EC50 for antioxidant activity” value is given as 2.7 × 10^-7 mg Cr/ml.
